Assay results from ChEMBL document CHEMBL4196244, “Matrine-Type Alkaloids from the Roots of Sophora flavescens and Their Antiviral Activities against the Hepatitis B Virus” (J Nat Prod, 2018).
Activity calls are given as the source filed them. No cut-off for these calls is given here.

Columns and labels:
Hepatitis B virus [1] = assay: Antiviral activity against HBV infected in human HepG2.2.15 cells assessed as inhibition of HBeAg secretion at 0.4 mM supplemented with fresh medium containing compound every 3 days for 9 days measured after 9 days by ELISA relative to control; format: functional
[2] = Cytotoxicity against human HepG2.2.15 cells assessed as growth inhibition at 0.8 mM by MTT assay relative to control; format: cell-based, HepG2 2.2.15; conditions: read-out: GI
Hepatitis B virus [3] = assay: Antiviral activity against HBV infected in human HepG2.2.15 cells assessed as inhibition of HBsAg secretion at 0.4 mM supplemented with fresh medium containing compound every 3 days for 9 days measured after 9 days by ELISA relative to control; format: functional
Hepatitis B virus [4] = assay: Antiviral activity against HBV infected in human HepG2.2.15 cells assessed as inhibition of HBeAg secretion at 0.8 mM supplemented with fresh medium containing compound every 3 days for 9 days measured after 9 days by ELISA relative to control; format: functional
[5] = Cytotoxicity against human HepG2.2.15 cells assessed as growth inhibition at 1 mM by MTT assay relative to control; format: cell-based, HepG2 2.2.15; conditions: read-out: GI
Hepatitis B virus [6] = assay: Antiviral activity against HBV infected in human HepG2.2.15 cells assessed as inhibition of HBsAg secretion at 0.8 mM supplemented with fresh medium containing compound every 3 days for 9 days measured after 9 days by ELISA relative to control; format: functional
Hepatitis B virus [7] = assay: Antiviral activity against HBV infected in human HepG2.2.15 cells assessed as inhibition of HBeAg secretion at 1 mM supplemented with fresh medium containing compound every 3 days for 9 days measured after 9 days by ELISA relative to control; format: functional
Hepatitis B virus [8] = assay: Antiviral activity against HBV infected in human HepG2.2.15 cells assessed as inhibition of HBsAg secretion at 1 mM supplemented with fresh medium containing compound every 3 days for 9 days measured after 9 days by ELISA relative to control; format: functional
Hepatitis B virus [9] = assay: Antiviral activity against HBV infected in human HepG2.2.15 cells assessed as inhibition of HBeAg secretion at 0.2 mM supplemented with fresh medium containing compound every 3 days for 9 days measured after 9 days by ELISA relative to control; format: functional
Hepatitis B virus [10] = assay: Antiviral activity against HBV infected in human HepG2.2.15 cells assessed as inhibition of HBsAg secretion at 0.2 mM supplemented with fresh medium containing compound every 3 days for 9 days measured after 9 days by ELISA relative to control; format: functional
[11] = Cytotoxicity against human HepG2.2.15 cells assessed as growth inhibition at 0.4 mM by MTT assay relative to control; format: cell-based, HepG2 2.2.15; conditions: read-out: GI

| SMILES | inhibition (INH) (Hepatitis B virus [1]) [%] | inhibition at 800 µM [2] [%] | inhibition (INH) (Hepatitis B virus [3]) [%] | also measured |
| --- | --- | --- | --- | --- |
| O=C(O)CCCc1ncc2c3c1CCCN3CCC2 | 33.2 | ≥ 25 | 37.2 |  |
| O=C1[C@@H](O)CC[C@@H]2[C@H]3CCCN4CCC[C@@H](CN12)[C@@H]34 | 18.5 | ≥ 25 | 33.2 |  |
| O=C1CCCN2CCC[C@](O)(CN3C(=O)CCC[C@H]13)C2=O |  | ≥ 25 | 14.1 | inhibition (Hepatitis B virus [1]): inactive |
| O=C1CCCC2=C3CCC[N+]4([O-])CCC[C@@H](CN12)[C@@H]34 (stereo partly specified) |  |  |  | inhibition (INH) (Hepatitis B virus [4]): 22.6%; inhibition at 1000 µM [5]: ≥ 25%; inhibition (INH) (Hepatitis B virus [6]): 25.4% |
| O=C1CCCN2CCC[C@](O)(C2=O)[C@H]2CCCC(=O)N2C1 | 40.4 | ≥ 25 | 46 |  |
| Nc1ccn([C@@H]2CS[C@H](CO)O2)c(=O)n1 [LAMIVUDINE] |  |  |  | inhibition (INH) (Hepatitis B virus [7]): 37.5%; inhibition (INH) (Hepatitis B virus [8]): 31.5 - 32.6% |
| O=C(O)CCC[C@@H]1N=CC2=C3[C@H]1CCCN3CCC2 | 16.8 | ≥ 25 | 30.8 |  |
| O=C(CCCc1ncc2c3c1CCCN3CCC2)N1CCCCC1 |  |  |  | inhibition (INH) (Hepatitis B virus [9]): 38%; inhibition (INH) (Hepatitis B virus [10]): 44.3%; inhibition at 400 µM [11]: ≥ 25% |
| O=C1CCCC2=C3CCCN4CCC[C@@H](CN12)[C@@H]34 | 29.9 | ≥ 25 | 22.4 |  |
| O=C1CCC[C@@H]2[C@H]3CCCN4CCC[C@@H](CN12)[C@@H]34 [MATRINE] | 16.8 | ≥ 25 | 34.7 |  |
| O=C1CCC[C@@H]2[C@H]3CCCN4CCC[C@H](CN12)[C@@H]34 [SOPHORIDINE] | 21.9 | ≥ 25 | 40.2 |  |
| O=C1CC[C@H]2C3=C(CCCN13)CN1C(=O)CCC[C@H]21 |  |  |  | inhibition (INH) (Hepatitis B virus [9]): 38.8%; inhibition (INH) (Hepatitis B virus [10]): 33%; inhibition at 400 µM [11]: ≥ 25% |
| O=c1cccc2n1C[C@@H]1CCCN3CCC[C@H]2[C@H]13 |  |  |  | inhibition (INH) (Hepatitis B virus [4]): 13.5%; inhibition at 1000 µM [5]: ≥ 25%; inhibition (INH) (Hepatitis B virus [6]): 29.5% |
| O=C1CCC[C@@H]2[C@H]3CCCN4CCC[C@@H](CN12)[C@H]34 | 17.7 | ≥ 25 | 26.3 |  |
| O=C1CCC[C@@H]2[C@H]3CCCN4CCC[C@H](CN12)[C@H]34 |  | ≥ 25 | 13.8 | inhibition (Hepatitis B virus [1]): inactive |
| O=C(O)CCCC1=NCC2CCCN3CCCC1=C23 (racemic) | 15.1 | ≥ 25 | 29.8 |  |
| O=C1CCC[C@@H]2[C@H]3CCCN4CCC[C@@](O)(CN12)[C@@H]34 |  |  |  | inhibition (INH) (Hepatitis B virus [9]): 28.4%; inhibition (INH) (Hepatitis B virus [10]): 33.8%; inhibition at 400 µM [11]: ≥ 25% |
| O=C1CC[C@H]2[C@@H]3[C@H](CCCN13)CN1C(=O)CCC[C@H]21 | 18.3 | ≥ 25 | 32.5 |  |
| O=C1CCC[C@@H]2[C@H]3CCC[N+]4([O-])CCC[C@@H](CN12)[C@@H]34 (stereo partly specified) [OXYMATRINE] | 20.3 | ≥ 25 | 38.3 |  |
